This assay addresses TRKA (Homo sapiens (Human), UniProt P04629). In words: Isolated TRK enzyme assay (HTRF KinEASE-TK), TRKA. The format is biochemical. Conditions: read-out: Trka enzyme (IC50). On the technique in general: TR-FRET usually uses a lanthanide donor and a delayed reading to cut background.

Experimental findings from US8846698B2, “Pyrrolo[2,3-d]pyrimidine tropomysin-related kinase inhibitors” (Pfizer Limited, priority 2011, dated 2014) are described below.

Each structure is given as a SMILES string. Structures can show the parent of a compound that is named as a salt.

Chain of TRKA (P04629 441-796): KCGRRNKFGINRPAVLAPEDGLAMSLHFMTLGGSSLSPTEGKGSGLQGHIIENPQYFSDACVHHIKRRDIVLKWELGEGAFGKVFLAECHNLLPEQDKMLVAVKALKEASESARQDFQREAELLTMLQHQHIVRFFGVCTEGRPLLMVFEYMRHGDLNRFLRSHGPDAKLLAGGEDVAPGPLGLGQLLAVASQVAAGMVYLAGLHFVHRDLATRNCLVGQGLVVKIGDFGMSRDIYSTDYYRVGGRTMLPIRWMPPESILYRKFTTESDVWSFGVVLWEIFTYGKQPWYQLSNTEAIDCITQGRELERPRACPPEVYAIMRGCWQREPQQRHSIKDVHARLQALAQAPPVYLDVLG

Usually IC50 stands for the point on the concentration scale where inhibition reaches its midpoint. For the molecule `CC(C)n1ncc(CC(=O)Nc2cncc(C(=O)c3cn(C(C)C)c4nc(N)ncc34)c2)c1C(F)(F)F` [Example 251, N-{5-[(2-amino-7-isopropyl-7H-pyrrolo[2,3-d]pyrimidin-5-yl)carbonyl]pyridin-3-yl}-2-[1-isopropyl-5-(trifluoromethyl)-1H-pyrazol-4-yl]acetamide], the IC50 turned out to be 33.1 nM. With `CC(C)n1cc(C(=O)c2cncc(NC(=O)Cn3ccc(C(F)(F)F)n3)c2)c2cnc(N)nc21` [Example 252, N-{5-[(2-amino-7-isopropyl-7H-pyrrolo[2,3-d]pyrimidin-5-yl)carbonyl]pyridin-3-yl}-2-[3-(trifluoromethyl)-1H-pyrazol-1-yl]acetamide] the figure was 5.18 nM.

For `CC(C)n1cc(C(=O)c2cncc(NC(=O)Cn3ccc(C4CC4)n3)c2)c2cnc(N)nc21` [Example 253, N-{5-[(2-amino-7-isopropyl-7H-pyrrolo[2,3-d]pyrimidin-5-yl)carbonyl]pyridin-3-yl}-2-(3-cyclopropyl-1H-pyrazol-1-yl)acetamide], the 50% inhibitory concentration (IC50) came to 3.92 nM.

`CC(C)n1cc(CC(=O)Nc2cncc(C(=O)c3cn(C(C)C)c4nc(N)ncc34)c2)c(C(F)(F)F)n1` [Example 254, N-{5-[(2-amino-7-isopropyl-7H-pyrrolo[2,3-d]pyrimidin-5-yl)carbonyl]pyridin-3-yl}-2-[1-isopropyl-3-(trifluoromethyl)-1H-pyrazol-4-yl]acetamide]: the IC50 was found to be 52.6 nM. Take `CC(C)n1cc(C(=O)c2cncc(NC(=O)Cc3ccc(C#N)cn3)c2)c2cnc(N)nc21` [Example 255, N-{5-[(2-amino-7-isopropyl-7H-pyrrolo[2,3-d]pyrimidin-5-yl)carbonyl]pyridin-3-yl}-2-(5-cyanopyridin-2-yl)acetamide]: the half-maximal inhibitory concentration (IC50) was 42.7 nM. In the case of `CC(C)(CO)n1cc(C(=O)c2cncc(NC(=O)Cc3cccc(C(F)(F)F)c3)c2)c2cnc(N)nc21` [Example 256, N-(5-{[2-amino-7-(2-hydroxy-1,1-dimethylethyl)-7H-pyrrolo[2,3-d]pyrimidin-5-yl]carbonyl}pyridin-3-yl)-2-[3-(trifluoromethyl)phenyl]acetamide], the IC50 was 1.09 nM. Consider `CC(C)(CO)n1cc(C(=O)c2cncc(NC(=O)Cc3ccc4ocnc4c3)c2)c2cnc(N)nc21` [Example 257, N-(5-{[2-amino-7-(2-hydroxy-1,1-dimethylethyl)-7H-pyrrolo[2,3-d]pyrimidin-5-yl]carbonyl}pyridin-3-yl)-2-(1,3-benzoxazol-5-yl)acetamide], for which the concentration for half-maximal inhibition (IC50) came to 12.2 nM. As for `CC(C)(CO)n1cc(C(=O)c2cncc(NC(=O)Cc3cccc(S(C)(=O)=O)c3)c2)c2cnc(N)nc21` [Example 258, N-(5-{[2-amino-7-(2-hydroxy-1,1-dimethylethyl)-7H-pyrrolo[2,3-d]pyrimidin-5-yl]carbonyl}pyridin-3-yl)-2-[3-(methylsulfonyl)phenyl]acetamide], the IC50 turned out to be 11.8 nM. With `CC(C)(CO)n1cc(C(=O)c2cncc(NC(=O)Cc3ccc(C#N)cc3)c2)c2cnc(N)nc21` [Example 259, N-(5-{[2-amino-7-(2-hydroxy-1,1-dimethylethyl)-7H-pyrrolo[2,3-d]pyrimidin-5-yl]carbonyl}pyridin-3-yl)-2-(4-cyanophenyl)acetamide], the 50% inhibitory concentration (IC50) was found to be 8.62 nM. Take `CC(C)n1ncc(CC(=O)Nc2cncc(C(=O)c3cn(C(C)(C)CO)c4nc(N)ncc34)c2)c1C(F)(F)F` [Example 260, N-(5-{[2-amino-7-(2-hydroxy-1,1-dimethylethyl)-7H-pyrrolo[2,3-d]pyrimidin-5-yl]carbonyl}pyridin-3-yl)-2-[1-isopropyl-5-(trifluoromethyl)-1H-pyrazol-4-yl]acetamide]: the IC50 turned out to be 16.8 nM.

For the molecule `CC(CO)(CO)n1cc(C(=O)c2cncc(NC(=O)Cc3ccc(C#N)c(C(F)(F)F)c3)c2)c2cncnc21` [Example 261], the IC50 was 128 nM. Regarding `CC(CO)(CO)n1cc(C(=O)c2cncc(NC(=O)Cc3ccc(F)c(C(F)(F)F)c3)c2)c2cncnc21` [Example 263, N-(5-(7-(1,3-dihydroxy-2-methylpropan-2-yl)-7H-pyrrolo[2,3-d]pyrimidine-5-carbonyl)pyridin-3-yl)-2-(4-fluoro-3-(trifluoromethyl)phenyl)acetamide], the concentration for half-maximal inhibition (IC50) amounted to 73.6 nM.

For `CC(CO)(CO)n1cc(C(=O)c2cncc(NC(=O)c3cccc(C(F)(F)F)c3)c2)c2cncnc21` [Example 264, N-(5-(7-(1,3-dihydroxy-2-methylpropan-2-yl)-7H-pyrrolo[2,3-d]pyrimidine-5-carbonyl)pyridin-3-yl)-3-(trifluoromethyl)benzamide], the IC50 was found to be 84.8 nM.

As to `CC(CO)(CO)n1cc(C(=O)c2cncc(NC(=O)c3ccc(C(F)(F)F)c(F)c3)c2)c2cncnc21` [Example 265, N-(5-(7-(1,3-dihydroxy-2-methylpropan-2-yl)-7H-pyrrolo[2,3-d]pyrimidine-5-carbonyl)pyridin-3-yl)-3-fluoro-4-(trifluoromethyl)benzamide], the half-maximal inhibitory concentration (IC50) worked out at 69 nM. For the molecule `CC(C)n1cc(C(=O)c2cncc(NC(=O)Cc3cccc(CN4CCC4)c3)c2)c2cncnc21` [Example 266, 2-[3-(azetidin-1-ylmethyl)phenyl]-N-{5-[(7-isopropyl-7H-pyrrolo[2,3-d]pyrimidin-5-yl)carbonyl]pyridin-3-yl}acetamide formate salt], the IC50 worked out at 2950 nM. In the case of `CC(C)n1cc(C(=O)c2cncc(NC(=O)Cc3cccc(CN4CC(F)C4)c3)c2)c2cncnc21` [Example 267, 2-{3-[(3-fluoroazetidin-1-yl)methyl]phenyl}-N-{5-[(7-isopropyl-7H-pyrrolo[2,3-d]pyrimidin-5-yl)carbonyl]pyridin-3-yl}acetamide], the 50% inhibitory concentration (IC50) was 2120 nM. The figure for `CC(C)n1cc(C(=O)c2cncc(NC(=O)Cc3cccc(CN4CCOCC4)c3)c2)c2cncnc21` [Example 268, N-{5-[(7-isopropyl-7H-pyrrolo[2,3-d]pyrimidin-5-yl)carbonyl]pyridin-3-yl}-2-[3-(morpholin-4-ylmethyl)phenyl]acetamide formate salt] is 579 nM. Turning to `O=C(Nc1cncc(C(=O)c2cn(C(CO)CO)c3ncncc23)c1)c1cccc(C(F)(F)F)c1` [Example 269, N-(5-(7-(1,3-dihydroxypropan-2-yl)-7H-pyrrolo[2,3-d]pyrimidine-5-carbonyl)pyridin-3-yl)-3-(trifluoromethyl)benzamide], the 50% inhibitory concentration (IC50) amounted to 557 nM.

In the case of `O=C(Cc1ccc(Cl)cc1)Nc1cncc(C(=O)c2cn(C(CO)CO)c3ncncc23)c1` [Example 270, 2-(4-chlorophenyl)-N-(5-(7-(1,3-dihydroxypropan-2-yl)-7H-pyrrolo[2,3-d]pyrimidine-5-carbonyl)pyridin-3-yl)acetamide], the half-inhibitory concentration (IC50) came out at 343 nM. Turning to `O=C(Nc1cncc(C(=O)c2cn(C(CO)CO)c3ncncc23)c1)c1cccc(OC(F)(F)F)c1` [Example 271, N-(5-(7-(1,3-dihydroxypropan-2-yl)-7H-pyrrolo[2,3-d]pyrimidine-5-carbonyl)pyridin-3-yl)-3-(trifluoromethoxy)benzamide], the IC50 was 39 nM. Turning to `O=C(Cc1ccc2cccnc2c1)Nc1cncc(C(=O)c2cn(C(CO)CO)c3ncncc23)c1` [Example 272, N-(5-(7-(1,3-dihydroxypropan-2-yl)-7H-pyrrolo[2,3-d]pyrimidine-5-carbonyl)pyridin-3-yl)-2-(quinolin-7-yl)acetamide], the IC50 is 697 nM. As to `O=C(Cc1ccc(C(F)(F)F)cc1)Nc1cncc(C(=O)c2cn(C(CO)CO)c3ncncc23)c1` [Example 273, N-(5-(7-(1,3-dihydroxypropan-2-yl)-7H-pyrrolo[2,3-d]pyrimidine-5-carbonyl)pyridin-3-yl)-2-(4-(trifluoromethyl)phenyl)acetamide], the half-inhibitory concentration (IC50) turned out to be 342 nM.

Turning to `O=C(Cc1cccc(C(F)(F)F)c1)Nc1cncc(C(=O)c2cn(C(CO)CO)c3ncncc23)c1` [Example 274, N-(5-(7-(1,3-dihydroxypropan-2-yl)-7H-pyrrolo[2,3-d]pyrimidine-5-carbonyl)pyridin-3-yl)-2-(3-(trifluoromethyl)phenyl)acetamide], the half-inhibitory concentration (IC50) was determined as 38.6 nM. With `Cc1ccc2ccc(CC(=O)Nc3cncc(C(=O)c4cn(C(CO)CO)c5ncncc45)c3)cc2n1` [Example 275, N-[5-({7-[2-hydroxy-1-(hydroxymethyl)ethyl]-7H-pyrrolo[2,3-d]pyrimidin-5-yl}carbonyl)pyridin-3-yl]-2-(2-methylquinolin-7-yl)acetamide] the figure was 5100 nM; with `O=C(Cc1ccc(Cl)c(Cl)c1)Nc1cncc(C(=O)c2cn(C(CO)CO)c3ncncc23)c1` [Example 276, 2-(3,4-dichlorophenyl)-N-[5-({7-[2-hydroxy-1-(hydroxymethyl)ethyl]-7H-pyrrolo[2,3-d]pyrimidin-5-yl}carbonyl)pyridin-3-yl]acetamide], 295 nM; with `O=C(Cc1ccc(C(F)(F)F)c(F)c1)Nc1cncc(C(=O)c2cn(C(CO)CO)c3ncncc23)c1` [Example 277, 2-[3-fluoro-4-(trifluoromethyl)phenyl]-N-[5-({7-[2-hydroxy-1-(hydroxymethyl)ethyl]-7H-pyrrolo[2,3-d]pyrimidin-5-yl}carbonyl)pyridin-3-yl]acetamide], 434 nM. With `O=C(Cc1ccc(Cl)cc1Cl)Nc1cncc(C(=O)c2cn(C(CO)CO)c3ncncc23)c1` [Example 278, 2-(2,4-dichlorophenyl)-N-[5-({7-[2-hydroxy-1-(hydroxymethyl)ethyl]-7H-pyrrolo[2,3-d]pyrimidin-5-yl}carbonyl)pyridin-3-yl]acetamide] the figure was 54.3 nM; with `O=C(Cc1cccc(OC(F)(F)F)c1)Nc1cncc(C(=O)c2cn(C(CO)CO)c3ncncc23)c1` [Example 279, N-[5-({7-[2-hydroxy-1-(hydroxymethyl)ethyl]-7H-pyrrolo[2,3-d]pyrimidin-5-yl}carbonyl)pyridin-3-yl]-2-[3-(trifluoromethoxy)phenyl]acetamide], 439 nM.

As to `O=C(Cc1ccc(OC(F)(F)F)cc1)Nc1cncc(C(=O)c2cn(C(CO)CO)c3ncncc23)c1` [Example 280, N-[5-({7-[2-hydroxy-1-(hydroxymethyl)ethyl]-7H-pyrrolo[2,3-d]pyrimidin-5-yl}carbonyl)pyridin-3-yl]-2-[4-(trifluoromethoxy)phenyl]acetamide], the concentration for half-maximal inhibition (IC50) is 498 nM.
